From patent EP4644383A1 (Jiangsu Yahong Meditech Co., Ltd., priority 2022, dated 2024)
Where two headings read alike, the source gives them in different places. Blank lines part the entries; values can stand above or below the compound they belong to.

Tests used:
FGFR3 = molecular target: T1, FGFR3 (Homo sapiens, UniProt P22607); experiment: FGFR3 kinase activity inhibition assay (LanthaScreen TR-FRET); assay type: biochemical; conditions: for Selectivity (X) FGFR1/FGFR3: ratio of IC50 FGFR1/FGFR3, selectivity towards FGFR3
T1 construct: FGFR3's cytoplasmic domain [436-806 (terminal) amino acids]; purchased Carna 08-135
T1 sequence (P22607 436-806): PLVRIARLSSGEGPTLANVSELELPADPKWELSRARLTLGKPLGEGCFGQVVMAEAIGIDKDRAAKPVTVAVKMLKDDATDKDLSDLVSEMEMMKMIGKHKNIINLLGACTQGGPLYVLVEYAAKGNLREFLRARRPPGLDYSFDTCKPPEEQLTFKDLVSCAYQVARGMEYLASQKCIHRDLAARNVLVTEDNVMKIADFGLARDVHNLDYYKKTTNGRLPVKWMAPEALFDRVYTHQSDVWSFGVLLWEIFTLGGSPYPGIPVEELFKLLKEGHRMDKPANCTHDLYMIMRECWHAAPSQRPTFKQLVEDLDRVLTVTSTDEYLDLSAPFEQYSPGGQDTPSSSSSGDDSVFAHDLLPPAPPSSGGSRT
Protocol: PV3552) and 10 mM EDTA were added to quench the kinase reaction, and incubated at 22°C for 60 minutes. • ⑤ The reaction was measured using a PerkinElmer EnVision multimode plate reader through TR-FRET dual wavelength detection. • 1. The RFU values were copied from the Envision program. • 2. The ratio of RFU 520nm/RFU 495nm was calculated. • 3. The value of the ratio was converted to a percentage inhibition value. % Inhibition = (max-data)/(max-min) × 100 [formula] "Min" represents the ratio of the control without enzyme, "max" represents the ratio of the DMSO control, and "data" represents the ratio of the compounds in wells with different concentrations. […] "Top" refers to the maximum response, "Bottom" refers to the minimum response, and "HillSlope" refers to the slope of the curve. According to the same method as that in the FGFR1 kinase activity inhibition assay, the inhibitory activities against FGFR2, FGFR3 and FGFR4 were tested using FGFR2's cytoplasmic domain [399-821 (terminal) amino acids] (Carna: 08-134), FGFR3's cytoplasmic domain [436-806 (terminal) amino acids] (Carna: 08-135) and FGFR4's cytoplasmic domain [460-802 (terminal) amino acids] (Carna: 08-136), respectively. […]

FGFR1 = molecular target: T2, FGFR1 (Homo sapiens, UniProt P11362); experiment: FGFR1 kinase activity inhibition assay (LanthaScreen TR-FRET); assay type: biochemical
T2 construct: cytoplasmic domain [398-822 (terminal) amino acids]; purchased Carna 08-133
T2 sequence (P11362 398-822): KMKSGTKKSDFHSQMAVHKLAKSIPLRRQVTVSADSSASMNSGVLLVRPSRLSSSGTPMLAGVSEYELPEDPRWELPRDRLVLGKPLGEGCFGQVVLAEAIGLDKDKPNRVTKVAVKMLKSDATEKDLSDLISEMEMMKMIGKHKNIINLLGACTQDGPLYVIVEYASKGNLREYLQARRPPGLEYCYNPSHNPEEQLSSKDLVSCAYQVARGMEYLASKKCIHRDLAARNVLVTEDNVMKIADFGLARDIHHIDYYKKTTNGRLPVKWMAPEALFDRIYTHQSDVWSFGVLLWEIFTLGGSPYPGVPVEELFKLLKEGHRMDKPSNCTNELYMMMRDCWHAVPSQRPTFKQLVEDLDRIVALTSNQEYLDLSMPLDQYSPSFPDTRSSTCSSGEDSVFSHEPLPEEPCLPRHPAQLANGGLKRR
Protocol: PV3552) and 10 mM EDTA were added to quench the kinase reaction, and incubated at 22°C for 60 minutes. • ⑤ The reaction was measured using a PerkinElmer EnVision multimode plate reader through TR-FRET dual wavelength detection. • 1. The RFU values were copied from the Envision program. • 2. The ratio of RFU 520nm/RFU 495nm was calculated. • 3. The value of the ratio was converted to a percentage inhibition value. % Inhibition = (max-data)/(max-min) × 100 [formula] "Min" represents the ratio of the control without enzyme, "max" represents the ratio of the DMSO control, and "data" represents the ratio of the compounds in wells with different concentrations. […] "Top" refers to the maximum response, "Bottom" refers to the minimum response, and "HillSlope" refers to the slope of the curve.

[1] = FGFR3 kinase, TR-FRET, read-out: IC50 (nM) FGFR3
[2] = FGFR1 kinase, TR-FRET, read-out: IC50 (nM) FGFR1

SMILES: COCCOCCn1cc(-c2n[nH]c3c(F)cc(O[C@H](C)c4c(Cl)cncc4Cl)cc23)cn1 [Example 21]
IC50 (FGFR3): 10 to 100 nM
Selectivity (X) FGFR1/FGFR3 (FGFR3): A (A represents 1 ≤ multiple X<20)
IC50 (FGFR1): > 100 nM

SMILES: COc1cc(O[C@H](C)c2c(Cl)cncc2Cl)cc2c(-c3cnn(CCN4CCOCC4)c3)n[nH]c12 [Example 25, (R)-4-(2-(4-(5-(1-(3,5-dichloropyridin-4-yl)ethoxy)-7-methoxy-1H-indazol-3-yl)-1H-pyrazol-1-yl)ethyl)morpholine]
IC50 (FGFR3): > 100 nM
Selectivity (X) FGFR1/FGFR3 (FGFR3): B (B represents 20 ≤ multiple X<50)
IC50 (FGFR1): > 100 nM

SMILES: Cc1cc(O[C@H](C)c2c(Cl)cncc2Cl)cc2c(-c3cnn(CC4CC4)c3)n[nH]c12 [Example 26, (R)-3-(1-(cyclopropylmethyl)-1H-pyrazol-4-yl)-5-(1-(3,5-dichloropyridin-4-yl)ethoxy)-7-methyl-1H-indazole]
IC50 (FGFR3): 10 to 100 nM
Selectivity (X) FGFR1/FGFR3 (FGFR3): B (B represents 20 ≤ multiple X<50)
IC50 (FGFR1): > 100 nM

SMILES: Cc1c(-c2n[nH]c3ccc(O[C@H](C)c4c(Cl)cncc4Cl)nc23)cnn1C [Example 30, (R)-5-(1-(3,5-dichloropyridin-4-yl)ethoxy)-3-(1,5-dimethyl-1H-pyrazol-4-yl)-1H-pyrazolo[4,3-b]pyridine]
IC50 (FGFR3): 10 to 100 nM
Selectivity (X) FGFR1/FGFR3 (FGFR3): A (A represents 1 ≤ multiple X<20)
IC50 (FGFR1): 10 to 100 nM

SMILES: CC(=O)N1CCC(n2cc(-c3n[nH]c4ccc(O[C@H](C)c5c(Cl)cncc5Cl)nc34)cn2)CC1 [Example 35]
IC50 (FGFR3): < 1 nM
Selectivity (X) FGFR1/FGFR3 (FGFR3): A (A represents 1 ≤ multiple X<20)
IC50 (FGFR1): 1 to 10 nM

SMILES: COCCn1cc(-c2n[nH]c3ccc(O[C@H](C)c4c(Cl)cncc4Cl)nc23)cn1 [Example 40, (R)-5-(1-(3,5-dichloropyridin-4-yl)ethoxy)-3-(1-(2-methoxyethyl)-1H-pyrazol-4-yl)-1H-pyrazolo[4,3-b]pyridine]
IC50 (FGFR3): 1 to 10 nM
Selectivity (X) FGFR1/FGFR3 (FGFR3): A (A represents 1 ≤ multiple X<20)
IC50 (FGFR1): 10 to 100 nM

SMILES: C[C@@H](Oc1ccc2[nH]nc(-c3cnn4c3CCC4)c2n1)c1c(Cl)cncc1Cl [Example 45, (R)-5-(1-(3,5-dichloropyridin-4-yl)ethoxy)-3-(5,6-dihydro-4H-pyrrolo[1,2-b]pyrazol-3-yl)-1H-pyrazolo[4,3-b]pyridine]
IC50 (FGFR3; [1]): 10 to 100 nM
Selectivity (X) FGFR1/FGFR3 (FGFR3): A (A represents 1 ≤ multiple X<20)
IC50 (FGFR1; [2]): > 100 nM

SMILES: Cc1ncc(-c2n[nH]c3ccc(O[C@H](C)c4c(Cl)cncc4Cl)nc23)cn1 [Example 52, (R)-5-(1-(3,5-dichloropyridin-4-yl)ethoxy)-3-(2-methylpyrimidin-5-yl)-1H-pyrazolo[4,3-b]pyridine]
IC50 (FGFR3; [1]): 10 to 100 nM
Selectivity (X) FGFR1/FGFR3 (FGFR3): A (A represents 1 ≤ multiple X<20)
IC50 (FGFR1; [2]): > 100 nM

SMILES: C[C@@H](Oc1ccc2[nH]nc(-c3cnn(CC(=O)N4CCOCC4)c3)c2n1)c1c(Cl)cncc1Cl [Example 63, (R)-2-(4-(5-(1-(3,5-dichloropyridin-4-yl)ethoxy)-1H-pyrazolo[4,3-b]pyridin-3-yl)-1H-pyrazol-1-yl)-1-morpholinoethan-1-one]
IC50 (FGFR3; [1]): 1 to 10 nM
Selectivity (X) FGFR1/FGFR3 (FGFR3): A (A represents 1 ≤ multiple X<20)
IC50 (FGFR1; [2]): 10 to 100 nM

SMILES: C[C@@H](Oc1ccc2[nH]nc(-c3cnn(CCN4CCCC4=O)c3)c2n1)c1c(Cl)cncc1Cl [Example 64, (R)-1-(2-(4-(5-(1-(3,5-dichloropyridin-4-yl)ethoxy)-1H-pyrazolo[4,3-b]pyridin-3-yl)-1H-pyrazol-1-yl)ethyl)pyrrolidin-2-one]
IC50 (FGFR3; [1]): 1 to 10 nM
Selectivity (X) FGFR1/FGFR3 (FGFR3): A (A represents 1 ≤ multiple X<20)
IC50 (FGFR1; [2]): 10 to 100 nM

SMILES: CNCCNS(=O)(=O)c1ccc2[nH]nc(-c3cnn(C)c3)c2c1 [Example 76, 3-(1-methyl-1H-pyrazol-4-yl)-N-(2-(methylamino)ethyl)-1H-indazole-5-sulfonamide]
IC50 (FGFR3; [1]): > 100 nM
Selectivity (X) FGFR1/FGFR3 (FGFR3): A (A represents 1 ≤ multiple X<20)
IC50 (FGFR1; [2]): > 100 nM

The next lines start with the values.

IC50 (FGFR3; [1]): < 1 nM
Selectivity (X) FGFR1/FGFR3 (FGFR3): A (A represents 1 ≤ multiple X<20)
IC50 (FGFR1; [2]): 1 to 10 nM
SMILES: COCCN(C)CCn1cc(-c2n[nH]c3c(F)cc(O[C@H](C)c4c(Cl)cncc4Cl)cc23)cn1 [Example 20, (R)-2-(4-(5-(1-(3,5-dichloropyridin-4-yl)ethoxy)-7-fluoro-1H-indazol-3-yl)-1H-pyrazol-1-yl)-N-(2-methoxyethyl)-N-methylethan-1-amine]

IC50 (FGFR3; [1]): 1 to 10 nM
Selectivity (X) FGFR1/FGFR3 (FGFR3): A (A represents 1 ≤ multiple X<20)
IC50 (FGFR1; [2]): 10 to 100 nM
SMILES: C[C@@H](Oc1cc(F)c2[nH]nc(-c3cnn(CCN4CCN(C)CC4)c3)c2c1)c1c(Cl)cncc1Cl [Example 22, (R)-5-(1-(3,5-dichloropyridin-4-yl)ethoxy)-7-fluoro-3-(1-(2-(4-methylpiperazin-1-yl)ethyl)-1H-pyrazol-4-yl)-1H-indazole]

IC50 (FGFR3; [1]): < 1 nM
Selectivity (X) FGFR1/FGFR3 (FGFR3): A (A represents 1 ≤ multiple X<20)
IC50 (FGFR1; [2]): 1 to 10 nM
SMILES: C[C@@H](Oc1ccc2[nH]nc(-c3cnn(CCCN4CCOCC4)c3)c2n1)c1c(Cl)cncc1Cl [Example 32, (R)-4-(3-(4-(5-(1-(3,5-dichloropyridin-4-yl)ethoxy)-1H-pyrazolo[4,3-b]pyridin-3-yl)-1H-pyrazol-1-yl)propyl)morpholine]

IC50 (FGFR3; [1]): 1 to 10 nM
Selectivity (X) FGFR1/FGFR3 (FGFR3): A (A represents 1 ≤ multiple X<20)
IC50 (FGFR1; [2]): 1 to 10 nM
SMILES: C[C@@H](Oc1ccc2[nH]nc(-c3cnn(C4CCOCC4)c3)c2n1)c1c(Cl)cncc1Cl [Example 34, (R)-5-(1-(3,5-dichloropyridin-4-yl)ethoxy)-3-(1-(tetrahydro-2H-pyran-4-yl)-1H-pyrazol-4-yl)1H-pyrazolo[4,3-b]pyridine]

IC50 (FGFR3; [1]): 1 to 10 nM
Selectivity (X) FGFR1/FGFR3 (FGFR3): B (B represents 20 ≤ multiple X<50)
IC50 (FGFR1; [2]): 10 to 100 nM
SMILES: C[C@@H](Oc1ccc2[nH]nc(-c3cnn(CCS(C)(=O)=O)c3)c2n1)c1c(Cl)cncc1Cl [Example 42, (R)-5-(1-(3,5-dichloropyridin-4-yl)ethoxy)-3-(1-(2-(methylsulfonyl)ethyl)-1H-pyrazol-4-yl)-1H-pyrazolo[4,3-b]pyridine]

IC50 (FGFR3; [1]): < 1 nM
Selectivity (X) FGFR1/FGFR3 (FGFR3): B (B represents 20 ≤ multiple X<50)
IC50 (FGFR1; [2]): 10 to 100 nM
SMILES: CCCn1cc(-c2n[nH]c3ccc(O[C@H](C)c4c(Cl)cncc4Cl)nc23)cn1 [Example 46, (R)-5-(1-(3,5-dichloropyridin-4-yl)ethoxy)-3-(1-propyl-1H-pyrazol-4-yl)-1H-pyrazolo[4,3-b]pyridine]

IC50 (FGFR3; [1]): 1 to 10 nM
Selectivity (X) FGFR1/FGFR3 (FGFR3): B (B represents 20 ≤ multiple X<50)
IC50 (FGFR1; [2]): 10 to 100 nM
SMILES: C[C@@H](Oc1ccc2[nH]nc(-c3cnn(CC4CC4)c3)c2n1)c1c(Cl)cncc1Cl [Example 49, (R)-3-(1-(cyclopropylmethy 1)-1H-pyrazol-4-yl)-5-(1-(3,5-dichloropyridin-4-yl)ethoxy)-1H-pyrazolo[4,3-b]pyridine]

IC50 (FGFR3; [1]): < 1 nM
Selectivity (X) FGFR1/FGFR3 (FGFR3): A (A represents 1 ≤ multiple X<20)
IC50 (FGFR1; [2]): 10 to 100 nM
SMILES: C[C@@H](Oc1ccc2[nH]nc(-c3cnn(CCC#N)c3)c2n1)c1c(Cl)cncc1Cl [Example 50, (R)-3-(4-(5-(1-(3,5-dichloropyridin-4-yl)ethoxy)-1H-pyrazolo[4,3-b]pyridin-3-yl)-1H-pyrazol-1-yl)propionitrile]

IC50 (FGFR3; [1]): < 1 nM
Selectivity (X) FGFR1/FGFR3 (FGFR3): A (A represents 1 ≤ multiple X<20)
IC50 (FGFR1; [2]): 1 to 10 nM
SMILES: C[C@@H](Oc1ccc2[nH]nc(-c3cnn(CCN4CCN(C)CC4)c3)c2n1)c1c(Cl)cncc1Cl [Example 53, (R)-5-(1-(3,5-dichloropyridin-4-yl)ethoxy)-3-(1-(2-(4-methylpiperazin-1-yl)ethyl)-1H-pyrazol-4-yl)-1H-pyrazolo[4,3-b]pyridine]

IC50 (FGFR3; [1]): < 1 nM
Selectivity (X) FGFR1/FGFR3 (FGFR3): A (A represents 1 ≤ multiple X<20)
IC50 (FGFR1; [2]): 1 to 10 nM
SMILES: C[C@@H](Oc1ccc2[nH]nc(-c3cnn(CCN4CCN(S(C)(=O)=O)CC4)c3)c2n1)c1c(Cl)cncc1Cl [Example 56, (R)-5-(1-(3,5-dichloropyridin-4-yl)ethoxy)-3-(1-(2-(4-(methylsulfonyl)piperazin-1-yl)ethyl)-1H-pyrazol-4-yl)-1H-pyrazolo[4,3-b]pyridine]

IC50 (FGFR3; [1]): < 1 nM
Selectivity (X) FGFR1/FGFR3 (FGFR3): A (A represents 1 ≤ multiple X<20)
IC50 (FGFR1; [2]): 1 to 10 nM
SMILES: CC(=O)N1CCN(CCn2cc(-c3n[nH]c4ccc(O[C@H](C)c5c(Cl)cncc5Cl)nc34)cn2)CC1 [Example 57, (R)-1-(4-(2-(4-(5-(1-(3,5-dichloropyridin-4-yl)ethoxy)-1H-pyrazolo[4,3-b]pyridin-3-yl)-1H-pyrazol-1-yl)ethyl)piperazin-1-yl)ethan-1-one]
